In DBAASP one finds MIC data, which are given here for seven molecules.

What all share (assay): ≥ marks a high value that may be exact or a test limit, other limits are often not marked, values filed in µg/mL are converted to µM
The subject of assay [1] is Pluralibacter gergoviae MTCC 3826.
The subject of assay [2] is Alcaligenes faecalis MTCC 1937.
Assay [3] concerns Staphylococcus haemolyticus MTCC 3383.
In assay [4] the test system is Proteus mirabilis MTCC 3158.
Assay [5] has as its system Haemophilus influenzae MTCC 621.
For assay [6], the system named is Citrobacter freundii MTCC 1658.
Assay [7] concerns Vibrio cholerae MTCC 3904.
Assay [8] has as its system Proteus vulgaris MTCC 1771.
Assay [9] concerns Citrobacter koseri MTCC 1657.
In assay [10] the test system is Shigella flexneri MTCC 1457.
The subject of assay [11] is Pseudomonas aeruginosa MTCC 3542.
For assay [12], the system named is Salmonella enterica MTCC 9844.
Assay [13] concerns Alkalihalobacillus alcalophilus MTCC 860.
In assay [14] the test system is Enterococcus faecalis MTCC 439.
For assay [15], the system named is Klebsiella pneumoniae MTCC 7407.
Assay [16] deals with Bordetella bronchiseptica MTCC 6837.
The test system of assay [17] is Klebsiella oxytoca MTCC 2275.
In assay [18] the test system is Shigella boydii MTCC 11947.
Assay [19] relates to Salmonella enterica subsp. enterica serovar Typhimurium ATCC 14028.
For assay [20], the system named is Corynebacterium glutamicum MTCC 2679.
The test system of assay [21] is Staphylococcus aureus MTCC 3160.
The test system of assay [22] is Klebsiella aerogenes MTCC 111.
Assay [23] deals with Acinetobacter baumannii MTCC 9829.
Assay [24] relates to Stenotrophomonas maltophilia MTCC 1890.
The test system of assay [25] is Escherichia coli K12 MG1655.
Assay [26] deals with Staphylococcus aureus.
Assay [27] deals with Enterococcus faecalis.
The subject of assay [28] is Streptococcus sanguinis NY101.
The test system of assay [29] is Streptococcus mutans UA159.
Assay [30] deals with Pseudomonas aeruginosa PAK.
Assay [31] concerns Escherichia coli W3110.
Assay [32] concerns Klebsiella pneumoniae ATCC BAA-1705.
The test system of assay [33] is Salmonella sp.

Each structure is given as a SMILES string. Values after ≈ are worked out from the molar mass of the structure shown.

Take `CC[C@H](C)[C@H](NC(=O)[C@H](C)N)C(=O)N[C@H](C(=O)N[C@@H](CCC(=O)O)C(=O)N[C@@H](CCC(N)=O)C(=O)N[C@@H](CC(C)C)C(=O)N[C@@H](CCCN=C(N)N)C(=O)N[C@@H](CCCCN)C(=O)N[C@@H](CCCN=C(N)N)C(=O)N[C@@H](CS)C(=O)O)C(C)C` [AIVEQLRKRC]: the MIC in assay [1], in assay [2], in assay [3], in assay [4], in [5] and in [6] was not below 105 µM each time. Also, the MIC in [7], in assay [8], in assay [9], in [10], in assay [11] and in assay [12] was not below 105 µM each time. Also, the MIC in [13], in assay [14], in assay [15], in [16], in assay [17] and in [18] was not below 105 µM in each case. In addition, the MIC is more than 105 µM in [19]; not below 105 µM in [20]; not below 105 µM in assay [21]; not below 105 µM in assay [22]; not below 105 µM in assay [23]; not below 105 µM in assay [24]. The same molecule returned an MIC in assay [25] not below 105 µM.

In the case of `CC[C@H](C)[C@H](NC(=O)[C@H](C)NC(=O)[C@H](CC(C)C)NC(=O)[C@H](C)NC(=O)[C@H](CC(C)C)NC(=O)[C@H](CCCCN)NC(=O)[C@H](CC(C)C)NC(=O)[C@H](C)NC(=O)[C@H](CO)NC(=O)[C@H](C)NC(=O)[C@H](CC(C)C)NC(=O)[C@H](CC(C)C)NC(=O)[C@H](CCCCN)NC(=O)[C@H](CCCCN)NC(=O)[C@H](C)NC(=O)[C@@H](NC(=O)[C@@H](N)CCC(=O)O)C(C)C)C(=O)O` [EVAKKLLASALKLALAI], the MIC in assay [1] is not below 73.1 µM; in assay [2], not below 73.1 µM; in assay [3], not below 73.1 µM; in assay [4], not below 73.1 µM; in [5], not below 36.5 µM; in assay [6], not below 73.1 µM. The MIC in assay [7], in assay [8], in assay [9], in [10], in assay [11] and in assay [12] was not below 73.1 µM in each case. Also, the MIC is not below 73.1 µM in assay [13]; not below 73.1 µM in assay [14]; not below 73.1 µM in assay [15]; 9.13 µM (≈ 16 µg/mL) in assay [16]; not below 73.1 µM in [17]; not below 73.1 µM in assay [18]. Moreover, the MIC in assay [19] is more than 73.1 µM; in [20] it was 18.3 µM (≈ 32 µg/mL); in [21], not below 73.1 µM; in assay [22], not below 73.1 µM; in assay [23], not below 73.1 µM; in assay [24] it was not below 73.1 µM. In assay [25], this molecule gave an MIC not below 73.1 µM.

On to `CC(C)C[C@H](NC(=O)[C@H](Cc1cnc[nH]1)NC(=O)[C@H](Cc1ccccc1)NC(=O)[C@H](Cc1cnc[nH]1)NC(=O)[C@@H](N)Cc1ccccc1)C(=O)N[C@@H](Cc1cnc[nH]1)C(=O)N[C@@H](Cc1ccccc1)C(N)=O` [FHFHLHF], for which the MIC in assay [26] turned out to be 32.5 µM (≈ 32 µg/mL); in assay [27] it was 16.3 µM (≈ 16 µg/mL); in [28], 16.3 µM (≈ 16 µg/mL); in [29], 8.13 µM (≈ 7.99 µg/mL); in assay [30] it was 16.3 µM (≈ 16 µg/mL); in assay [31], 8.13 µM (≈ 7.99 µg/mL).

`CC[C@H](C)[C@H](N)C(=O)N[C@@H](Cc1c[nH]c2ccccc12)C(=O)N[C@@H](Cc1c[nH]c2ccccc12)C(=O)N[C@@H](C)C(=O)N[C@@H](CCCCN)C(=O)N[C@@H](Cc1c[nH]c2ccccc12)C(=O)NCC(=O)N[C@@H](CC(C)C)C(=O)N[C@@H](CCCCN)C(=O)N[C@@H](CC(C)C)C(=O)N[C@@H](CC(C)C)C(=O)N[C@@H](CCCN=C(N)N)C(=O)N[C@@H](Cc1ccc(O)cc1)C(=O)N[C@@H](CCCN=C(N)N)C(=O)N[C@@H](CCCN=C(N)N)C(=O)N[C@H](C(=O)N[C@@H](Cc1ccc(O)cc1)C(=O)O)[C@@H](C)CC` [IWWAKWGLKLLRYRRIY]: the MIC in assay [32] worked out at 8 µM (≈ 18.6 µg/mL); in assay [31] it was 1 µM (≈ 2.32 µg/mL).

`CC(C)C[C@H](NC(=O)[C@H](CCCCN)NC(=O)[C@H](CC(C)C)NC(=O)[C@@H](N)CC(C)C)C(=O)N[C@@H](Cc1ccccc1)C(=O)N[C@@H](Cc1ccccc1)C(=O)N1CCC[C@H]1C(=O)N[C@@H](Cc1ccccc1)C(=O)N[C@@H](CC(C)C)C(=O)N[C@@H](CCC(=O)O)C(=O)N[C@H](C(=O)NCC(=O)N[C@@H](CCC(=O)O)C(=O)O)[C@@H](C)O` [LLKLFFPFLETGE] showed an MIC in [33] not below 256 µM.

For the molecule `CC(C)C[C@H](NC(=O)CNC(=O)[C@H](CC(C)C)NC(=O)[C@H](CCCCN)NC(=O)[C@H](C)NC(=O)[C@H](Cc1c[nH]c2ccccc12)NC(=O)[C@H](Cc1c[nH]c2ccccc12)NC(=O)[C@@H](N)Cc1c[nH]c2ccccc12)C(=O)N[C@@H](CCCCN)C(=O)N[C@@H](CC(C)C)C(=O)N[C@@H](CC(C)C)C(=O)N[C@@H](CCCN=C(N)N)C(=O)N[C@@H](Cc1ccc(O)cc1)C(=O)N[C@@H](CCCN=C(N)N)C(=O)N[C@@H](CCCN=C(N)N)C(=O)N[C@@H](Cc1c[nH]c2ccccc12)C(=O)N[C@@H](Cc1ccc(O)cc1)C(=O)O` [WWWAKLGLKLLRYRRWY], the MIC in assay [32] worked out at 8 µM (≈ 19.2 µg/mL); in [31], 4 µM (≈ 9.58 µg/mL).

For `CC[C@H](C)[C@H](NC(=O)[C@H](CCCCN)NC(=O)[C@H](CCCCN)NC(=O)[C@H](C)NC(=O)[C@H](CCCCN)NC(=O)[C@H](CO)NC(=O)[C@H](CCCN=C(N)N)NC(=O)[C@H](Cc1c[nH]c2ccccc12)NC(=O)[C@H](CCCCN)NC(=O)[C@H](CCCCN)NC(=O)[C@H](Cc1c[nH]c2ccccc12)NC(=O)[C@H](CCCN=C(N)N)NC(=O)[C@H](CCCCN)NC(=O)[C@@H](N)Cc1ccc(O)cc1)C(=O)N[C@@H](CC(C)C)C(=O)O` [YKRWKKWRSKAKKIL], the MIC in assay [1] was not below 63.4 µM; in assay [2], not below 63.4 µM; in assay [3], 1.98 µM (≈ 4 µg/mL); in assay [4], not below 63.4 µM; in [5] it was 15.8 µM (≈ 32 µg/mL); in assay [6], not below 63.4 µM. For the same molecule, the MIC in assay [7] is not below 63.4 µM; in assay [8], 31.7 µM (≈ 64 µg/mL); in assay [9] it was 7.92 µM (≈ 16 µg/mL); in assay [10], 3.96 µM (≈ 8 µg/mL); in assay [11], not below 63.4 µM; in [12] it was 7.92 µM (≈ 16 µg/mL). Besides, the MIC in assay [13] is 31.7 µM (≈ 64 µg/mL); in [14], not below 63.4 µM; in assay [15] it was not below 63.4 µM; in [16] it was 3.96 µM (≈ 8 µg/mL); in [17] it was 15.8 µM (≈ 32 µg/mL); in [18] it was 3.96 µM (≈ 8 µg/mL). In addition, the MIC in assay [19] is 15.8 µM (≈ 32 µg/mL); in assay [20] it was 0.99 µM (≈ 2 µg/mL); in assay [21] it was not below 63.4 µM; in [22] it was not below 63.4 µM; in assay [23], 7.92 µM (≈ 16 µg/mL); in [24] it was not below 63.4 µM. Also, the MIC in assay [25] came out at 1.98 µM (≈ 4 µg/mL).
